Source: ChEMBL document CHEMBL3885861, “Open TG-GATES”

Species on record: Rattus norvegicus
Experiment: Open TG-GATES - Regimen: Single
Format: toxicity, organism-based, Sprague-Dawley
Parameters: regimen Single, gender Male, age 6 weeks
Conditions: in vivo, po, 600 mg/kg, route gavage, dose level High; for APTT / Bas / Eos / Fbg / Hb / Ht / Lym / MCH / MCHC / MCV / Mono / Neu / PT / Plat / RBC / Ret / WBC: tissue Blood; for KIDNEY_L / KIDNEY_R / KIDNEY_TOTAL: tissue Kidney; for LIVER: tissue Liver; for A/G / ALP / ALT / AST / BUN / CRE / Ca / Cl / DBIL / GLC / IP / K / LDH / Na / PL / RALB / TBIL / TC / TG / TP / gamma-GTP: tissue Plasma

## C[C@](N)(Cc1ccc(O)c(O)c1)C(=O)O [METHYLDOPA]
3 h
  TERMINAL_BW: 186.5 g
  APTT: 15.6 s
  Bas: 0%
  Eos: 0.8%
  Fbg: 261.6 mg/dL
  Hb: 13.2 g/dL
  Ht: 39.8%
  Lym: 74.6%
  MCH: 22 pg
  MCHC: 33.1%
  MCV: 66.7 fL
  Mono: 3.4%
  Neu: 20.8%
  PT: 12.2 s
  Plat: 112.5 x10_4/uL
  RBC: 597.2 x10_4/ul
  Ret: 10.6%
  WBC: 68.3 x10_2/uL
  KIDNEY_L: 0.8 g
  KIDNEY_R: 0.8 g
  KIDNEY_TOTAL: 1.6 g
  LIVER: 7.8 g
  A/G: 0.9
  ALP: 1837.6 IU/L
  ALT: 55.2 IU/L
  AST: 84.4 IU/L
  BUN: 9.4 mg/dL
  CRE: 0.1 mg/dL
  Ca: 11.3 mg/dL
  Cl: 108.2 meq/L
  DBIL: 0.018 mg/dL
  GLC: 204.4 mg/dL
  IP: 9.8 mg/dL
  K: 4.6 meq/L
  LDH: 59.6 IU/L
  Na: 143.4 meq/L
  PL: 133.6 mg/dL
  RALB: 2.5 g/dL
  TBIL: 0.054 mg/dL
  TC: 76.6 mg/dL
  TG: 70.8 mg/dL
  TP: 5.4 g/dL
  gamma-GTP: 1 IU/L
6 h
  TERMINAL_BW: 187.6 g
  APTT: 17.1 s
  Bas: 0%
  Eos: 0.8%
  Fbg: 272.2 mg/dL
  Hb: 13.7 g/dL
  Ht: 41.1%
  Lym: 81%
  MCH: 21.7 pg
  MCHC: 33.3%
  MCV: 65.2 fL
  Mono: 2.4%
  Neu: 15.4%
  PT: 12.3 s
  Plat: 136.7 x10_4/uL
  RBC: 631 x10_4/ul
  Ret: 9.9%
  WBC: 49.9 x10_2/uL
  KIDNEY_L: 0.8 g
  KIDNEY_R: 0.8 g
  KIDNEY_TOTAL: 1.7 g
  LIVER: 7.7 g
  A/G: 0.9
  ALP: 1883.6 IU/L
  ALT: 52 IU/L
  AST: 81 IU/L
  BUN: 6 mg/dL
  CRE: 0.1 mg/dL
  Ca: 11.7 mg/dL
  Cl: 105.2 meq/L
  DBIL: 0.006 mg/dL
  GLC: 225.8 mg/dL
  IP: 13.1 mg/dL
  K: 5.4 meq/L
  LDH: 71.8 IU/L
  Na: 144.8 meq/L
  PL: 122 mg/dL
  RALB: 2.6 g/dL
  TBIL: 0.054 mg/dL
  TC: 76.6 mg/dL
  TG: 38 mg/dL
  TP: 5.6 g/dL
  gamma-GTP: 1 IU/L
9 h
  TERMINAL_BW: 188.2 g
  APTT: 17.2 s
  Bas: 0%
  Eos: 0.4%
  Fbg: 262.8 mg/dL
  Hb: 13.5 g/dL
  Ht: 40.3%
  Lym: 79%
  MCH: 22.1 pg
  MCHC: 33.6%
  MCV: 65.8 fL
  Mono: 2.6%
  Neu: 17.4%
  PT: 12.5 s
  Plat: 122.5 x10_4/uL
  RBC: 614.4 x10_4/ul
  Ret: 9.7%
  WBC: 52.4 x10_2/uL
  KIDNEY_L: 0.8 g
  KIDNEY_R: 0.8 g
  KIDNEY_TOTAL: 1.6 g
  LIVER: 7.3 g
  A/G: 0.9
  ALP: 1418.8 IU/L
  ALT: 46.2 IU/L
  AST: 67.8 IU/L
  BUN: 6.2 mg/dL
  CRE: 0.1 mg/dL
  Ca: 11.4 mg/dL
  Cl: 105.6 meq/L
  DBIL: 0.008 mg/dL
  GLC: 220 mg/dL
  IP: 11.8 mg/dL
  K: 4.9 meq/L
  LDH: 62 IU/L
  Na: 144.2 meq/L
  PL: 120 mg/dL
  RALB: 2.5 g/dL
  TBIL: 0.056 mg/dL
  TC: 75.4 mg/dL
  TG: 30.8 mg/dL
  TP: 5.3 g/dL
  gamma-GTP: 1 IU/L
24 h
  TERMINAL_BW: 180.6 g
  APTT: 16.9 s
  Bas: 0%
  Eos: 1%
  Fbg: 251.2 mg/dL
  Hb: 13.4 g/dL
  Ht: 39.6%
  Lym: 76%
  MCH: 21.9 pg
  MCHC: 33.9%
  MCV: 64.5 fL
  Mono: 3%
  Neu: 20%
  PT: 12.5 s
  Plat: 133.6 x10_4/uL
  RBC: 613.2 x10_4/ul
  Ret: 9.5%
  WBC: 49.4 x10_2/uL
  KIDNEY_L: 0.9 g
  KIDNEY_R: 0.9 g
  KIDNEY_TOTAL: 1.8 g
  LIVER: 7.5 g
  A/G: 0.9
  ALP: 1827.4 IU/L
  ALT: 50 IU/L
  AST: 73.4 IU/L
  BUN: 20 mg/dL
  CRE: 0.2 mg/dL
  Ca: 11.4 mg/dL
  Cl: 108.2 meq/L
  DBIL: 0.02 mg/dL
  GLC: 202.2 mg/dL
  IP: 8.8 mg/dL
  K: 4.8 meq/L
  LDH: 63.4 IU/L
  Na: 146.2 meq/L
  PL: 139.4 mg/dL
  RALB: 2.7 g/dL
  TBIL: 0.074 mg/dL
  TC: 84 mg/dL
  TG: 60.6 mg/dL
  TP: 5.7 g/dL
  gamma-GTP: 1 IU/L
